ChEMBL document CHEMBL1144693, “Botryolides A-E, decarestrictine analogues from a fungicolous Botryotrichum sp. (NRRL 38180)” (J Nat Prod, 2008)
Activity calls are given as the source filed them.

Key:
Type in all cases: functional, organism-based
Bacillus subtilis = assay: Antibacterial activity against Bacillus subtilis ATCC 6051 at 100 ug/disk
Candida albicans = assay: Antifungal activity against Candida albicans ATCC 14053 at 100 ug/disk
Aspergillus flavus = assay: Antifungal activity against Aspergillus flavus NRRL 6541 at 100 ug/disk
Fusarium verticillioides = assay: Antifungal activity against Fusarium verticillioides NRRL 25457 at 100 ug/disk
Staphylococcus aureus = assay: Antibacterial activity against Staphylococcus aureus ATCC 25923 at 100 ug/disk

Measured: Activity

C[C@@H]1C[C@@H]2O[C@@H]2[C@H]2O[C@@H]2[C@@H](O)CC(=O)O1
inactive: all assays above

C[C@@H]1C[C@@H]2O[C@@H]2/C=C/[C@H](O)CC(=O)O1
inactive: all assays above

C[C@@H]1C[C@H](O)C(=O)CCC(O)CC(=O)O1 (stereo partly drawn)
inactive: all assays above

C[C@@H]1C[C@@H]2O[C@@H]2/C=C/[C@]2(CC(=O)O1)C[C@@H](O)C(=O)O2
inactive: Bacillus subtilis | Candida albicans | Staphylococcus aureus
